1 molecule from PMC11352859, “Functionalized Congeners of 2H-Chromene P2Y6 Receptor Antagonists” (Cells, 2024) can be followed below.

For one test, the target named is T1, D5 (Homo sapiens, UniProt P21918).
T1 construct: NIMH Psychoactive Drug Screening Program (PDSP)
Nature of the test: PDSP binding assay, D5. An excerpt: (§1) Table S2. Off-target screening (to replace table later). We thank Dr. Bryan L. Roth (Univ. North Carolina at Chapel Hill) and National Institute of Mental Health's Psychoactive Drug Screening Program (Contract # HHSN-271-2008-00025-C) for screening data. Reference: Besnard et al.
(§2) Procedures: https://pdsp.unc.edu/pdspweb/content/UNC-CH%20Protocol%20Book.pdf […]
(§3) nucleosides were found at the following sites (human unless noted): 5HT1A, 5HT1B, 5HT1D, […]
(§4) β3, BZP rat brain site, D1, D2, D3, D4, D5, GABAA, H1, H2, H3, H4, M1, M2, M5, δ-opioid receptor (DOR), κ-opioid receptor (KOR), μ-opioid receptor (MOR), σ1, σ2, DAT, NET, SERT. Ki values […]
(§5) Compound # PDSP # Receptor LogKi Ki (nM)

For the next test, the target named is T2, H1 (Homo sapiens, UniProt P35367).
T2 construct: NIMH Psychoactive Drug Screening Program (PDSP)
Nature of the test: PDSP binding assay, H1. The note with it: Table S2, single determinations; read-out: Ki (nM), H1.
From the text: as §1, §2, §3, §4, §5

For a further test, the target named is T3, D2 (Homo sapiens, UniProt P14416).
T3 construct: NIMH Psychoactive Drug Screening Program (PDSP)
Nature of the test: PDSP binding assay, D2. The note with it: Table S2, single determination.
From the text: as §1, §2, §3, §4, §5

In the next test the target is T4, 5-HT1A (Homo sapiens, UniProt P08908).
T4 construct: NIMH Psychoactive Drug Screening Program (PDSP)
Nature of the test: PDSP binding assay, 5-HT1A. Conditions: Table S2, single determination.
From the text: as §1, §2, §3, §4, §5

Test [1] deals with 45 target sites (receptors, channels, and transporters). Nature of the test: PDSP off-target binding screen at 45 target sites. Details: species or system human. Conditions: PDSP binding assays.
From the text: as §1, §2, §3, §4, §5

A further test addresses T5, α2B (Homo sapiens, UniProt P18089).
T5 construct: NIMH Psychoactive Drug Screening Program (PDSP)
T5 sequence (P18089 1-450): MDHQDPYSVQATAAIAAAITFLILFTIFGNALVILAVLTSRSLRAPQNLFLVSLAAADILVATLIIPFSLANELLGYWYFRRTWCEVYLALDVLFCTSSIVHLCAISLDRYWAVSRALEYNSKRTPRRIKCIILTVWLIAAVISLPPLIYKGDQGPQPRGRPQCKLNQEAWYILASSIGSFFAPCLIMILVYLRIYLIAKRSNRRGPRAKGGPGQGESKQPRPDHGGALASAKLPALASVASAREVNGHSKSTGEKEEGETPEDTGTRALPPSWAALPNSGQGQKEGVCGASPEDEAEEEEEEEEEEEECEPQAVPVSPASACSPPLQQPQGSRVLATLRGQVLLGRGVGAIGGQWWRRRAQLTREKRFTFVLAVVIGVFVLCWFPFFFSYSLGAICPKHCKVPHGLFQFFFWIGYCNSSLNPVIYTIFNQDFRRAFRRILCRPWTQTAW
Nature of the test: PDSP binding assay, α2B. The note with it: mean, n = 2.
From the text: as §1, §2, §3, §4, §5

A further test addresses T6, D3 (Homo sapiens, UniProt P35462).
T6 construct: NIMH Psychoactive Drug Screening Program (PDSP)
Nature of the test: PDSP binding assay, D3. The note with it: Table S2, single determination.
From the text: as §1, §2, §3, §4, §5

The target of another test is T7, hP2Y14R (Homo sapiens, UniProt Q15391).
T7 construct: expressed in transfected cells
T7 sequence (Q15391 1-338): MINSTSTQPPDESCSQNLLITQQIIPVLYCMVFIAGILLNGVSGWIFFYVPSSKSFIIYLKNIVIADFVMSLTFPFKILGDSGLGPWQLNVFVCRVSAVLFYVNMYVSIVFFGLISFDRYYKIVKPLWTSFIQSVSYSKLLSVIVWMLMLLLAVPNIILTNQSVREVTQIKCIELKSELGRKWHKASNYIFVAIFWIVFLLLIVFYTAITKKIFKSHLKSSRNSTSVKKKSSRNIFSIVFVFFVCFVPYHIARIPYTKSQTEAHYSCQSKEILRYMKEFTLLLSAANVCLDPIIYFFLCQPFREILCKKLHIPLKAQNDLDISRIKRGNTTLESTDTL
Nature of the test: whole-cell binding of fluorescent antagonist MRS4174 in CHO-hP2Y14R cells (flow cytometry). (In flow cytometry, cells or beads pass a laser one at a time.)

The target of another test is T8, H2 (Homo sapiens, UniProt P25021).
T8 construct: NIMH Psychoactive Drug Screening Program (PDSP)
Nature of the test: PDSP binding assay, H2. Conditions: mean, n = 2.
From the text: as §1, §2, §3, §4, §5

Another test has as its target T9, D4 (Homo sapiens, UniProt P21917).
T9 construct: NIMH Psychoactive Drug Screening Program (PDSP)
Nature of the test: PDSP binding assay, D4. The note with it: mean, n = 2.
From the text: as §1, §2, §3, §4, §5

Another test deals with T10, α2A (Homo sapiens, UniProt P08913).
T10 construct: NIMH Psychoactive Drug Screening Program (PDSP)
T10 sequence (P08913 1-465): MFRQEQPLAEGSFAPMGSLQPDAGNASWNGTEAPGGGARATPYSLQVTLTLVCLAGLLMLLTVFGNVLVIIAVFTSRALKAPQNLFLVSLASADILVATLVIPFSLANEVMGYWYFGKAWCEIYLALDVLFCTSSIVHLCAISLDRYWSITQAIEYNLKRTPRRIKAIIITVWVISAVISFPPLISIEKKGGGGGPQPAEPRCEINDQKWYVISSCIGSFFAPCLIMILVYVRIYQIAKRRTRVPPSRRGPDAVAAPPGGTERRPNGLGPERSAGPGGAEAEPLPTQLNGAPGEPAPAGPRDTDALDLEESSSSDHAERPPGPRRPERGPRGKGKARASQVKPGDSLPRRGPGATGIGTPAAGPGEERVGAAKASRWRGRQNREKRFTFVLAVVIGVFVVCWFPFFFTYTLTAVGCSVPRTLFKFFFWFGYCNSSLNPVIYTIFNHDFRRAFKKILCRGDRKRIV
Nature of the test: PDSP binding assay, α2A.
From the text: as §1, §2, §3, §4, §5

The test system of a further test is HeLa cells. Nature of the test: MTT cell viability assay, HeLa cells. It is filed as cell-based, human. Conditions: for % survival: 12 h, MTT. Here is the method:
The 1321N1 astrocytoma (hP2Y6R-overexpressing) and HeLa (non-transfected) cell lines were cultured in Dulbecco’s modified Eagle’s medium (DMEM, HyClone, Logan, UT, USA) supplemented with 5% heat-inactivated fetal bovine serum (FBS, HyClone, UT, USA), 100 U/mL penicillin, and 100 µg/mL streptomycin in 5% CO2 at 37 °C. The cell viability was determined using an MTT kit (Sigma, St. Louis, MO, USA) according to the manufacturer’s instructions. Briefly, 1 × 10^4 cells were seeded in triplicate in 96-well plates. The hP2Y6R-astrocytoma and HeLa cells were treated with a P2Y6R agonist and antagonists at a range of concentrations and incubated for 12 h. The cell viability was measured at 490 nm using a SpectraMax-M5 Spectrometer (Molecular Devices, San Jose, CA, USA).
On the technique in general: Formazan colour is commonly taken as a measure of viable cells.

“And” between values parts separate entries of the source, which are not always exact repeats. Identical values can stand only once. Like-named read-outs stand apart in the source and are kept apart here.

The Ki is the equilibrium dissociation constant of an inhibitor or competing ligand from its target. Usually IC50 stands for the midpoint of a concentration-inhibition curve.

T1 sequence (P21918 whole entry): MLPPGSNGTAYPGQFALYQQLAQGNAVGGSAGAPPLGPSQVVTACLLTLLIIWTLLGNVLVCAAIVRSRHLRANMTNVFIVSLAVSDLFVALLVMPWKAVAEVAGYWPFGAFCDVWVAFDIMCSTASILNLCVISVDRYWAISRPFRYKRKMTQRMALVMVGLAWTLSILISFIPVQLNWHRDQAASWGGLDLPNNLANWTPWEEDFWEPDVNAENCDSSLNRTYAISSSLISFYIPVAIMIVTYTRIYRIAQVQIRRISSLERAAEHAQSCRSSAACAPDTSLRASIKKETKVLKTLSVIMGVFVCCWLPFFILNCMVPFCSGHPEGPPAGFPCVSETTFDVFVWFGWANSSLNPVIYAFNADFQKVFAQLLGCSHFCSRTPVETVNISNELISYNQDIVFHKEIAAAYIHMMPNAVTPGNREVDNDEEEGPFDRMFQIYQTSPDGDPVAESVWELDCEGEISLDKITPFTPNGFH
T2 sequence (P35367 whole entry): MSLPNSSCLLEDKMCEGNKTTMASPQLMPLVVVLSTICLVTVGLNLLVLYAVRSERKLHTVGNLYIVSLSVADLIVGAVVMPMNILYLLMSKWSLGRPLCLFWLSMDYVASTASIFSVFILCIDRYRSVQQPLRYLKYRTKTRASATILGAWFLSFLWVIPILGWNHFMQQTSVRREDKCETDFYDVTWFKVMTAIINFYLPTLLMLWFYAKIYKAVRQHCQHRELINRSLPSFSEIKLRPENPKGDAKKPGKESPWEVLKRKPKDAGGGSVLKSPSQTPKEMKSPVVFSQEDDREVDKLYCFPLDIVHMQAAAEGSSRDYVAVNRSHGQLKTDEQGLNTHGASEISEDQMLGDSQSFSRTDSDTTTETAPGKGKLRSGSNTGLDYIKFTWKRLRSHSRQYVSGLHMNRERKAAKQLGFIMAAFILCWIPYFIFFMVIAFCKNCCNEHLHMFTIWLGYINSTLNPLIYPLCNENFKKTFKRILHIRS
T8 sequence (P25021 whole entry): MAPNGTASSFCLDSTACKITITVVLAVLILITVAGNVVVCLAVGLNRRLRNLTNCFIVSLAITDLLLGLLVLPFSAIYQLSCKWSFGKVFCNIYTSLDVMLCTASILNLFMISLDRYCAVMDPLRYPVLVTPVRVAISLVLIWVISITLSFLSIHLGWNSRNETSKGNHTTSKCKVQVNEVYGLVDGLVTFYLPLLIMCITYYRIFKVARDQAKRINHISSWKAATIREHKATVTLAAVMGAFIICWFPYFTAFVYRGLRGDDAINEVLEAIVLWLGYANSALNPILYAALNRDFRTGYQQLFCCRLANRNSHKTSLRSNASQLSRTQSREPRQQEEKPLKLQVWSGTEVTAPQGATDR
T6 sequence (P35462 whole entry): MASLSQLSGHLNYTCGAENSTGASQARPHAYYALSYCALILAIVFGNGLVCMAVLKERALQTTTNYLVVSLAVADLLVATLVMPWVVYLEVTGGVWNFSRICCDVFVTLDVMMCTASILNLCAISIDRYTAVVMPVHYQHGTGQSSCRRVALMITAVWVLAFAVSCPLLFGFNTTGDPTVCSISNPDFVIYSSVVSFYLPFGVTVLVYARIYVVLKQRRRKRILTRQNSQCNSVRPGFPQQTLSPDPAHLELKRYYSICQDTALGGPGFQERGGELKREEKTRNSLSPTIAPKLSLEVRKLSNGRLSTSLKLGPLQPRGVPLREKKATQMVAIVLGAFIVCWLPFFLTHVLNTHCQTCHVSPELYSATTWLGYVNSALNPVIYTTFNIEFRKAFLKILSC
T3 sequence (P14416 whole entry): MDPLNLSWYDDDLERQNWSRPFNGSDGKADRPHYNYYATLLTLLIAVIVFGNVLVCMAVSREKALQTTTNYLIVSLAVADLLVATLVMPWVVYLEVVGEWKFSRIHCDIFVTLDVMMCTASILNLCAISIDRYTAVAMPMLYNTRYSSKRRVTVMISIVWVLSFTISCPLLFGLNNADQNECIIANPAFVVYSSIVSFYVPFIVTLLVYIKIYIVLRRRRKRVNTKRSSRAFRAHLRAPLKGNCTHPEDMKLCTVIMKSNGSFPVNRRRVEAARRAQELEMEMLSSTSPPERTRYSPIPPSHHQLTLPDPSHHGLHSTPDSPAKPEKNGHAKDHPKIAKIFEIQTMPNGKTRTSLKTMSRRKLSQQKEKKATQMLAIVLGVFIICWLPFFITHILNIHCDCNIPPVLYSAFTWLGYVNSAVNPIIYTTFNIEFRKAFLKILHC
T4 sequence (P08908 whole entry): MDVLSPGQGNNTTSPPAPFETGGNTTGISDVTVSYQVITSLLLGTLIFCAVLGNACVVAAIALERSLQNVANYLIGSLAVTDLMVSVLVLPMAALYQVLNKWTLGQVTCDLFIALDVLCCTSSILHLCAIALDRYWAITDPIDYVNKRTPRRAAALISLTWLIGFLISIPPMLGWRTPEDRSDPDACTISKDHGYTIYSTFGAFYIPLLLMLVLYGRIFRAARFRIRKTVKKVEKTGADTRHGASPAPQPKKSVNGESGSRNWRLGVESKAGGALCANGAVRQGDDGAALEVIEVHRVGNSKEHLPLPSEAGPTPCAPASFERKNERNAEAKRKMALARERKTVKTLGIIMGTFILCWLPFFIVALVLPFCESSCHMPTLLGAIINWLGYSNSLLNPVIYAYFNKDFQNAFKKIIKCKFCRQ
T9 sequence (P21917 whole entry): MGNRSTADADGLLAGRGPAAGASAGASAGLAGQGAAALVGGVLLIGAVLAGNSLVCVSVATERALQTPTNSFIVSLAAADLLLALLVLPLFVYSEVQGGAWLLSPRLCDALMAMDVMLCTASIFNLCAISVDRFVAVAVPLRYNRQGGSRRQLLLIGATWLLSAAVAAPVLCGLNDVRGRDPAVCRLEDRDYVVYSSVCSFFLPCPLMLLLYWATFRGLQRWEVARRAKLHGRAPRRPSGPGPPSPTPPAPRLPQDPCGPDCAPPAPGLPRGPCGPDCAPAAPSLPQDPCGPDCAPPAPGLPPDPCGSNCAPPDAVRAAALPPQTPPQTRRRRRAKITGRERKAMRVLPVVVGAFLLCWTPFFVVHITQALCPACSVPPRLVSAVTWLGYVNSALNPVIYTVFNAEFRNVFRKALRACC

As to `CC(C)(C)OC(=O)NCCCCCCCC#Cc1ccc2c(c1)C=C([N+](=O)[O-])C(C(F)(F)F)O2` (stereo not shown) [Compound 30, tert-Butyl (9-(3-nitro-2-(trifluoromethyl)-2H-chromen-6-yl)non-8-yn-1-yl)carbamate], the inhibition constant Ki on D5 (PDSP, mean, n = 2, read-out: Ki, D5) is 780 nM; on D5 (Table S2, single determinations, read-out: Ki (nM), D5), 643 nM and 911 nM; at H1, 630 nM and 366 nM; on D2 it was above 10000 nM; on 5-HT1A it was above 10000 nM; on α2B, 170 nM. The Ki at D3 is above 10000 nM; on H2, 500 nM; at D4 it was 3100 nM; on α2A (PDSP, mean, n = 2, read-out: Ki, α2A), 86 nM; on α2A (Table S2, single determinations, read-out: Ki (nM), Alpha2A), 80.2 nM and 90.7 nM. For the same molecule, the “off-target interactions at 45 target sites” value in test [1] is recorded as “seven off-target interactions”. The IC50 at hP2Y14R (CHO-hP2Y14, competitive binding, flow cytometer) came out at 21400 ± 5800 nM. Further, the “fold selective compared to the hP2Y14R” value at hP2Y14R (hP2Y6R vs hP2Y14R) worked out at 132 fold. Moreover, the “% survival” value in the test with HeLa cells (0.05 µM) worked out at 94%; in the test with HeLa cells (0.1 µM) it was 94%; in the test on HeLa cells (0.5 µM), 87%; in the test with HeLa cells (1 µM) it was 71%. Further, in the test on HeLa cells (at 1 µM, 12 h exposure), the inhibition of viability is recorded as 29%.
